Measured values: patent publication US5622966A, “7-substituted quinolones and naphthyridones as antibacterial agents” (Warner-Lambert Company, priority 1995, dated 1997)
Converted amounts (≈) assume the structure as drawn.

What was measured:
Experiment in all cases: In vitro antibacterial activity, microtitration dilution method (MIC)
Format in all cases: cell-based
[1] = test system: S. aureus R; conditions: Staphylococcus aureus, read-out: Minimal Inhibitory Concentration MIC
Description: (§1) The compounds of the invention display antibacterial activity when tested by the microtitration dilution method as described in Heifetz, et al, Antimicr. Agents & Chemoth. 6:124 (1974), which is incorporated herein by reference.
(§2) By use of the above reference method, the following minimum inhibitory concentration value (MICs in μg/mL) shown in Table I were obtained for representative compounds of the invention.

[2] = test system: E. coli Vogel; conditions: Escherichia coli, read-out: Minimal Inhibitory Concentration MIC
Description: as §1, §2

[3] = test system: Streptococcus pneum.; conditions: read-out: Minimal Inhibitory Concentration MIC
Description: as §1, §2

[4] = test system: Pseu. aeru.; conditions: read-out: Minimal Inhibitory Concentration MIC
Description: as §1, §2

[5] = test system: Kleb. pneu.; conditions: read-out: Minimal Inhibitory Concentration MIC
Description: as §1, §2

[6] = test system: Prot. rettg.; conditions: read-out: Minimal Inhibitory Concentration MIC
Description: as §1, §2

[7] = test system: Streptococcus pyog.; conditions: read-out: Minimal Inhibitory Concentration MIC
Description: as §1, §2

[8] = test system: Enter. cloac.; conditions: read-out: Minimal Inhibitory Concentration MIC
Description: as §1, §2

[9] = test system: Streptococcus faec.; conditions: read-out: Minimal Inhibitory Concentration MIC
Description: as §1, §2

[10] = test system: S. aureus S; conditions: Staphylococcus aureus, read-out: Minimal Inhibitory Concentration MIC
Description: as §1, §2

| SMILES | MIC [1] [µg/mL] | MIC [2] [µg/mL] | MIC [3] [µg/mL] | MIC [4] [µg/mL] | MIC [5] [µg/mL] | MIC [6] [µg/mL] | MIC [7] [µg/mL] | MIC [8] [µg/mL] | MIC [9] [µg/mL] | MIC [10] [ng/mL] |
| --- | --- | --- | --- | --- | --- | --- | --- | --- | --- | --- |
| NCc1ccccc1C1CCN(c2nc3c(cc2F)c(=O)c(C(=O)O)cn3C2CC2)C1 (stereo not shown) [Example 1, 7-[3-[2-(Aminomethyl)phenyl]-1-pyrrolidinyl]-1-cyclopropyl-6-fluoro-1,4-dihydro-4-oxo-1,8-naphthyridine-3-carboxylic acid] | 0.05 (≈ 0.118 µM) | 0.1 (≈ 0.237 µM) | 0.025 (≈ 0.0592 µM) | 1.6 (≈ 3.79 µM) | 0.2 (≈ 0.473 µM) | 0.4 (≈ 0.947 µM) | 0.025 (≈ 0.0592 µM) | 0.1 (≈ 0.237 µM) | 0.05 (≈ 0.118 µM) | 13 (≈ 0.0308 µM) |
| NCc1cccc(C2CCN(c3nc4c(cc3F)c(=O)c(C(=O)O)cn4C3CC3)C2)c1 (stereo not shown) [Example 6, 7-[3-[3-(Aminomethyl)phenyl]-1-pyrrolidinyl]-1-cyclopropyl-6-fluoro-1,4-dihydro-4-oxo-1,8-naphthyridine-3-carboxylic acid] | 0.013 (≈ 0.0308 µM) | 0.05 (≈ 0.118 µM) | 0.006 (≈ 0.0142 µM) | 0.8 (≈ 1.89 µM) | 0.05 (≈ 0.118 µM) | 0.1 (≈ 0.237 µM) | 0.006 (≈ 0.0142 µM) | 0.05 (≈ 0.118 µM) | 0.025 (≈ 0.0592 µM) | 6 (≈ 0.0142 µM) |
| NCc1cccc(C2CCN(c3cc4c(cc3F)c(=O)c(C(=O)O)cn4C3CC3)C2)c1 (stereo not shown) [Example 7, 7-[3-[3-(Aminomethyl)phenyl]-1-pyrrolidinyl]-1-cyclopropyl-6-fluoro-1,4-dihydro-4-oxo-3-quinolinecarboxylic acid] | 0.025 (≈ 0.0593 µM) | 0.05 (≈ 0.119 µM) | ≤ 0.003 | 0.8 (≈ 1.9 µM) | 0.1 (≈ 0.237 µM) | 0.1 (≈ 0.237 µM) | ≤ 0.003 | 0.05 (≈ 0.119 µM) | 0.013 (≈ 0.0308 µM) | 6 (≈ 0.0142 µM) |
| NCc1cccc(C2CCN(c3c(F)c(N)c4c(=O)c(C(=O)O)cn(C5CC5)c4c3F)C2)c1 (stereo not shown) [Example 8, 5-Amino-7-[3-[3-(aminomethyl)phenyl]-1-pyrrolidinyl]-1-cyclopropyl-6,8-difluoro-1,4-dihydro-4-oxo-3-quinolinecarboxylic acid] | 0.013 (≈ 0.0286 µM) | 0.05 (≈ 0.11 µM) | 0.006 (≈ 0.0132 µM) | 0.8 (≈ 1.76 µM) | 0.1 (≈ 0.22 µM) | 0.2 (≈ 0.44 µM) | 0.013 (≈ 0.0286 µM) | 0.05 (≈ 0.11 µM) | 0.013 (≈ 0.0286 µM) | ≤ 3 |
| NCc1ccc(C2CCN(c3c(F)c(N)c4c(=O)c(C(=O)O)cn(C5CC5)c4c3F)C2)cc1 (stereo not shown) [Example 11, 5-Amino-7-[3-[4-(aminomethyl)phenyl]-1-pyrrolidinyl]-1-cyclopropyl-6,8-difluoro-1,4-dihydro-4-oxo-3-quinolinecarboxylic acid] | 0.013 (≈ 0.0286 µM) | 0.1 (≈ 0.22 µM) | 0.013 (≈ 0.0286 µM) | 0.8 (≈ 1.76 µM) | 0.2 (≈ 0.44 µM) | 0.2 (≈ 0.44 µM) | 0.013 (≈ 0.0286 µM) | 0.1 (≈ 0.22 µM) | 0.013 (≈ 0.0286 µM) | ≤ 3 |
| CNCc1cccc(C2CCN(c3c(F)c(N)c4c(=O)c(C(=O)O)cn(C5CC5)c4c3F)C2)c1 (stereo not shown) [Example 13, 5-Amino-1-cyclopropyl-6,8-difluoro-1,4-dihydro-7-[3-[3-[(methylamino)methyl]phenyl]-1-pyrrolidinyl]-4-oxo-3-quinolinecarboxvlic acid] | 0.05 (≈ 0.107 µM) | 0.2 (≈ 0.427 µM) | 0.05 (≈ 0.107 µM) | 1.6 (≈ 3.42 µM) | 0.4 (≈ 0.854 µM) | 0.8 (≈ 1.71 µM) | 0.05 (≈ 0.107 µM) | 0.2 (≈ 0.427 µM) | 0.05 (≈ 0.107 µM) | 13 (≈ 0.0277 µM) |
| CNCc1ccc(C2CCN(c3cc4c(cc3F)c(=O)c(C(=O)O)cn4C3CC3)C2)cc1 (stereo not shown) [Example 14, 1-Cyclopropyl-6-fluoro-1,4-dihydro-7-[3-[4-[(methylamino)methyl]phenyl]-1-pyrrolidinyl]-4-oxo-3-quinolinecarboxylic acid] | 0.013 (≈ 0.0299 µM) | 0.2 (≈ 0.459 µM) | 0.013 (≈ 0.0299 µM) | 1.6 (≈ 3.67 µM) | 0.4 (≈ 0.918 µM) | 0.4 (≈ 0.918 µM) | 0.013 (≈ 0.0299 µM) | 0.2 (≈ 0.459 µM) | 0.025 (≈ 0.0574 µM) | 6 (≈ 0.0138 µM) |
| CNCc1ccc(C2CCN(c3c(F)c(N)c4c(=O)c(C(=O)O)cn(C5CC5)c4c3F)C2)cc1 (stereo not shown) [Example 15, 5-Amino-1-cyclopropyl-6,8-difluoro-1,4-dihydro-7-[3-[4-[(methylamino)methyl]phenyl]-1-pyrrolidinyl]-4-oxo-3-quinolinecarboxylic acid] | 0.013 (≈ 0.0277 µM) | 0.2 (≈ 0.427 µM) | 0.013 (≈ 0.0277 µM) | 1.6 (≈ 3.42 µM) | 0.4 (≈ 0.854 µM) | 0.4 (≈ 0.854 µM) | 0.013 (≈ 0.0277 µM) | 0.2 (≈ 0.427 µM) | 0.025 (≈ 0.0534 µM) | 6 (≈ 0.0128 µM) |
| O=C(O)c1cn(C2CC2)c2cc(N3CCC(c4ccccn4)C3)c(F)cc2c1=O (stereo not shown) [Example 17, 1-Cyclopropyl-6-fluoro-1,4-dihydro-4-oxo-7-[3-(2-pyridinyl)-1-pyrrolidinyl]-3-quinolinecarboxylic acid] | 0.006 (≈ 0.0153 µM) | 0.1 (≈ 0.254 µM) | 0.05 (≈ 0.127 µM) | 0.8 (≈ 2.03 µM) | 0.2 (≈ 0.508 µM) | 0.2 (≈ 0.508 µM) | 0.05 (≈ 0.127 µM) | 0.1 (≈ 0.254 µM) | 0.05 (≈ 0.127 µM) | ≤ 3 |
| O=C(O)c1cn(C2CC2)c2cc(N3CCC(c4cccnc4)C3)c(F)cc2c1=O (stereo not shown) [Example 21, 1-Cyclopropyl-6-fluoro-1,4-dihydro-4-oxo-7-[3-(3-pyridinyl)-1-pyrrolidinyl]-3-quinolinecarboxylic acid] | 0.006 (≈ 0.0153 µM) | 0.1 (≈ 0.254 µM) | 0.025 (≈ 0.0635 µM) | 0.8 (≈ 2.03 µM) | 0.2 (≈ 0.508 µM) | 0.2 (≈ 0.508 µM) | 0.025 (≈ 0.0635 µM) | 0.1 (≈ 0.254 µM) | 0.025 (≈ 0.0635 µM) | ≤ 3 |
| Nc1c(F)c(N2CCC(c3cccnc3)C2)c(F)c2c1c(=O)c(C(=O)O)cn2C1CC1 (stereo not shown) [Example 22, 5-Amino-1-cyclopropyl-6,8-difluoro-1,4-dihydro-4-oxo-7-[3-(3-pyridinyl)-1-pyrrolidinyl]-3-quinoline-carboxylic acid] | 0.006 (≈ 0.0141 µM) | 0.1 (≈ 0.235 µM) | 0.025 (≈ 0.0586 µM) | 1.6 (≈ 3.75 µM) | 0.2 (≈ 0.469 µM) | 0.2 (≈ 0.469 µM) | 0.025 (≈ 0.0586 µM) | 0.1 (≈ 0.235 µM) | 0.05 (≈ 0.117 µM) | ≤ 3 |
| Nc1c(F)c(N2CCC(c3ccncc3)C2)c(F)c2c1c(=O)c(C(=O)O)cn2C1CC1 (stereo not shown) [Example 25, 5-Amino-1-cyclopropyl-6,8-difluoro-1,4-dihydro-4-oxo-7-[3-(4-pyridinyl)-1-pyrrolidinyl]-3-quinoline-carboxylic acid] | 0.006 (≈ 0.0141 µM) | 0.2 (≈ 0.469 µM) | 0.05 (≈ 0.117 µM) | 3.1 (≈ 7.27 µM) | 0.4 (≈ 0.938 µM) | 0.4 (≈ 0.938 µM) | 0.05 (≈ 0.117 µM) | 0.2 (≈ 0.469 µM) | 0.05 (≈ 0.117 µM) | ≤ 3 |
| NCc1cccnc1C1CCN(c2c(F)c(N)c3c(=O)c(C(=O)O)cn(C4CC4)c3c2F)C1 (stereo not shown) [Example 29, 5-Amino-7-[3-[3-(aminomethyl)-2-pyridinyl]-1-pyrrolidinyl]-1-cyclopropyl-6,8-difluoro-1,4-dihydro-4-oxo-3-quinolinecarboxylic acid] | 0.025 (≈ 0.0549 µM) | 0.05 (≈ 0.11 µM) | 0.025 (≈ 0.0549 µM) | 1.6 (≈ 3.51 µM) | 0.1 (≈ 0.22 µM) | 0.2 (≈ 0.439 µM) | 0.025 (≈ 0.0549 µM) | 0.05 (≈ 0.11 µM) | 0.025 (≈ 0.0549 µM) | 13 (≈ 0.0285 µM) |
